Data from patent publication US9474277B2, “Pyrazole compound and pesticidal mixtures comprising a pyrazole compound” (BASF SE, priority 2012, dated 2016).
Read-outs that look alike come from different tables or passages of the source.

Legend:
[1] = tested on: Rice Plant Hopper (Nilaparvata lugens); assay: B.7 Rice plant hopper test on sprayed rice seedlings; format: in vivo; details: 500 ppm, after 72 hours
Experimental: B.7 Rice Plant Hopper (Nilaparvata lugens)
(§1) Rice seedlings were cleaned and washed 24 hours before spraying. The active compounds were formulated in 50:50 acetone: water and 0.1% vol/vol surfactant (EL 620) was added. Potted rice seedlings were sprayed with 5 ml test solution, air dried, placed in cages and inoculated with 10 adults. Treated rice plants were kept at 28-29° C. and relative humidity of 50-60%. Percent mortality was recorded after 72 hours.

[2] = tested on: Rice Green Leafhopper (Nephotettix virescens); assay: B.9 Rice green leafhopper test on sprayed rice seedlings; format: in vivo; details: 500 ppm, after 72 hours
Experimental: B.9 Rice Green Leafhopper (Nephotettix virescens)
as §1, with “water,” for “water”

Rhizoctonia solani = assay: Test 10 - Control of Rhizoctonia solani, corn seed treatment, plant height; format: in vivo; details: single active compound, 14 days
Experimental: Test 10—Control of Rhizoctonia solani
The compounds were dissolved in Acetone. Seeds of com were treated in a treater as standard equipment. The products and concentrations are listed below. After the treatment the seeds were sown in pots, and rye seeds (infected with Rhizoctonia solani) were placed next to the seeds (1 seed per corn seed).
After cultivation in the greenhouse for 14 days at 20° C. and a relative humidity of 70% the plant height of the plants were measured.

Puccinia recondita = assay: Test 11 - Control of brown rust on wheat, seed treatment; format: in vivo; details: single active, untreated 90% disease
Experimental: Test 11—Control of Brown Rust on Wheat Caused by Puadnia recondita
Seeds of wheat were treated in a treater as standard equipment. The products and concentrations are listed below. At the same day the plants were seeded in pots. 14 days later at 19° C. and 70% humidity the plants were inoculated with spores of Puccinia recondita. To ensure the success the artificial inoculation, the plants were transferred to a humid chamber without light and a relative humidity of 95 to 99% and 20 to 24° C. for 24 h. Then the trial plants were cultivated for 6 days in a greenhouse chamber at 20-24° C. and a relative humidity between 65 and 70%. The extent of fungal attack on the leaves was visually assessed as % diseased leaf area.

[3] = tested on: Blumeria graminis f. sp. tritici; assay: Test 12 - Control of powdery mildew on wheat, seed treatment; format: in vivo; details: single active, untreated 82% disease
Experimental: Test 12—Control of Powdery Mildew on Wheat Caused by Blumeria graminis f. sp. tritici
Seeds of wheat were treated in a treater as standard equipment. The products and concentrations are listed below. At the same day the plants were seeded in pots. 14 days later at 19° C. and 70% humidity the plants were inoculated with spores of Blumeria graminis f. sp. tritici (=syn. Erysiphe garminis f. sp. tritici) by shaking heavily infestated stock plants over the treated pots. After cultivation in the greenhouse for 7 days at 22-26° C. and a relative humidity between 60 to 90% the extent of fungal attack on the leaves was visually assessed as % diseased leaf area.

[4] = tested on: Greenbug Aphid, Schizaphis graminum; assay: Test 13 - Activity against greenbug aphid, wheat seed treatment; format: in vivo; details: single active, aphids counted 4 DAI
Experimental: Test 13—Activity Against Greenbug Aphid, Schizaphis graminum: Wheat seed treatment
Technical material was dissolved in acetone at sub-lethal doses. 50 μL of solution was added to a 20-ml scintillation vial, 15 wheat seeds were added, and the seeds were coated by vortexing the vial for 1 minute. The seeds were allowed to dry and planted later the same day. Seeds were planted individually in a moistened, fertilized soil mixture of 1:1 North Carolina loamy sand (Sandhill soil):play sand in 40.32 cm^2 pots. Pots were arranged in a randomized complete block design in the greenhouse and top-watered daily. Plant emergence and shoot phytotoxicity were evaluated 4, 7, and 14 days after treatment (DAT). At 14 DAT (true leaf stage), each plant was infested with 10 greenbug aphids (Schizaphis graminum) of mixed stages. Plants were maintained on light carts in a randomized complete block design and bottom-watered as needed. Twelve replicates (pots) were prepared for plant emergence and five replicates were prepared for infestation. Live aphids were counted 4 DAI and the mean percent population reduction relative to the solvent blank control was calculated.

Altemaria solani = details: single active compound, 7 days after inoculation

CCN(C(=O)c1cnn(C2CC3(C2)OCCO3)c1C)c1ccnnc1 [Compound C-15]
mortality in comparison with untreated controls [1]: 75%

CCN(C(=O)c1cnn(C(C)C2CC23CC3)c1C)c1ccnnc1 (stereo not shown) [Compound C-26]
mortality in comparison with untreated controls [2]: at least 75%

CCN(C(=O)c1cnn(C(C)C(C)C)c1C)c1ccnnc1 (stereo not shown) [Compound I-674]
Observed efficacy (%) (Rhizoctonia solani; 63 g a.i./100 kg seeds): 5%
Observed efficacy (%) (Puccinia recondita; 250 g a.i./100 kg seeds): 0%
Observed efficacy (%) ([3]; 4 g a.i./100 kg seeds): 9%
Observed efficacy (%) ([3]; 250 g a.i./100 kg seeds): 21%
Observed efficacy (%) ([4]; table with fungicides F.1 to F.11, 33.7 g a.i./100 kg seeds): 21%
Observed efficacy (%) ([4]; table with insecticides A.1 to A.17, 33.7 g a.i./100 kg seeds): 28%
Observed efficacy (Altemaria solani; 63 ppm): 1%

CCN(C(=O)c1cnn(C(C)C(F)F)c1C)c1ccnnc1 (stereo not shown) [Compound I-680]
Observed efficacy (%) (Rhizoctonia solani; 63 g a.i./100 kg seeds): 0%
Observed efficacy (%) (Puccinia recondita; 250 g a.i./100 kg seeds): 0%
Observed efficacy (%) ([3]; 250 g a.i./100 kg seeds): 15%
Observed efficacy (%) ([4]; table with fungicides F.1 to F.11, 2.9 g a.i./100 kg seeds): 7%
Observed efficacy (%) ([4]; table with insecticides A.1 to A.17, 2.9 g a.i./100 kg seeds): 23%
Observed efficacy (Altemaria solani; 63 ppm): 3%

CCN(C(=O)c1cnn(C(C)C2(C#N)CC2)c1C)c1ccnnc1 (stereo not shown) [Compound I-698]
Observed efficacy (%) (Rhizoctonia solani; 250 g a.i./100 kg seeds): 3%
Observed efficacy (%) (Puccinia recondita; 63 g a.i./100 kg seeds): 4%
Observed efficacy (%) ([3]; 250 g a.i./100 kg seeds): 15%
Observed efficacy (%) ([4]; table with fungicides F.1 to F.11, 150 g a.i./100 kg seeds): 51%
Observed efficacy (%) ([4]; table with insecticides A.1 to A.17, 150 g a.i./100 kg seeds): 74%
Observed efficacy (Altemaria solani; 1 ppm): 7%
Observed efficacy (Altemaria solani; 63 ppm): 3%

N#Cc1c[nH]cc1-c1cccc2c1OC(F)(F)O2 [Fludioxonil, 4-(2,2-difluorobenzo[1,3]dioxol-4-yl)-1H-pyrrole-3-carbonitrile, reference compound]
Observed efficacy (Altemaria solani; 0.063 ppm): 26%

Cn1cc(C(=O)Nc2ccccc2-c2cc(F)c(F)c(F)c2)c(C(F)F)n1 [Fluxapyroxad, reference compound]
Observed efficacy (%) (Rhizoctonia solani; 4 g a.i./100 kg seeds): 74%
Observed efficacy (%) (Puccinia recondita; 1 g a.i./100 kg seeds): 16%
Observed efficacy (%) ([4]; table with fungicides F.1 to F.11, 20 g a.i./100 kg seeds): 0%

COCC(=O)N(c1c(C)cccc1C)[C@H](C)C(=O)OC [Mefenoxam, reference compound]
Observed efficacy (%) (Rhizoctonia solani; 63 g a.i./100 kg seeds): 0%
Observed efficacy (%) ([3]; 4 g a.i./100 kg seeds): 0%
Observed efficacy (%) ([4]; table with fungicides F.1 to F.11, 15 g a.i./100 kg seeds): 6%

COC(=O)N(OC)c1ccccc1COc1ccn(-c2ccc(Cl)cc2)n1 [Pyraclostrobin, methyl N-{2-[1-(4-chlorophenyl)-1H-pyrazol-3-yloxymethyl]phenyl}(N-methoxy)carbamate, reference compound]
Observed efficacy (%) (Rhizoctonia solani; 63 g a.i./100 kg seeds): 49%
Observed efficacy (Altemaria solani; 0.016 ppm): 16%

c1ccc2[nH]c(-c3cscn3)nc2c1 [Thiabendazol]
Observed efficacy (%) ([3]; 250 g a.i./100 kg seeds): 2%

CC1(C)CC/C(=C\c2ccc(Cl)cc2)C1(O)Cn1cncn1 (stereo not shown) [Triticonazol, (5E)-5-[(4-chlorophenyl)methylene]-2,2-dimethyl-1-(1H-1,2,4-triazol-1-ylmethyl)cyclopentanol, reference compound]
Observed efficacy (%) (Rhizoctonia solani; 16 g a.i./100 kg seeds): 20%
Observed efficacy (%) (Puccinia recondita; 16 g a.i./100 kg seeds): 49%
Observed efficacy (%) ([3]; 16 g a.i./100 kg seeds): 60%
Observed efficacy (Altemaria solani; 0.063 ppm): 27%

CNC(=O)c1cc(Cl)cc(C)c1NC(=O)c1cc(Br)nn1-c1ncccc1Cl [chloranthraniliprole]
Observed efficacy (%) ([4]; table with insecticides A.1 to A.17, 75 g a.i./100 kg seeds): 30%
